In ChEMBL document CHEMBL4665735, “Discovery of a d-pro-lys peptidomimetic inhibitor of MMP9: Addressing the gelatinase selectivity beyond S1' subsite” (Bioorg Med Chem Lett, 2020):

What was measured:
[1] = target: Matrix metalloproteinase-9 (Homo sapiens, UniProt P14780); assay: Inhibition of MMP9 (unknown origin) using Mca-Lys-Pro-Leu-GlyLeu-Dpa-Ala-Arg-NH2 as substrate by fluorometric assay
[2] = target: 72 kDa type IV collagenase (Homo sapiens, UniProt P08253); assay: Inhibition of MMP2 (unknown origin) using Mca-Lys-Pro-Leu-GlyLeu-Dpa-Ala-Arg-NH2 as substrate by fluorometric assay
72 kDa type IV collagenase, sequence (P08253 whole entry): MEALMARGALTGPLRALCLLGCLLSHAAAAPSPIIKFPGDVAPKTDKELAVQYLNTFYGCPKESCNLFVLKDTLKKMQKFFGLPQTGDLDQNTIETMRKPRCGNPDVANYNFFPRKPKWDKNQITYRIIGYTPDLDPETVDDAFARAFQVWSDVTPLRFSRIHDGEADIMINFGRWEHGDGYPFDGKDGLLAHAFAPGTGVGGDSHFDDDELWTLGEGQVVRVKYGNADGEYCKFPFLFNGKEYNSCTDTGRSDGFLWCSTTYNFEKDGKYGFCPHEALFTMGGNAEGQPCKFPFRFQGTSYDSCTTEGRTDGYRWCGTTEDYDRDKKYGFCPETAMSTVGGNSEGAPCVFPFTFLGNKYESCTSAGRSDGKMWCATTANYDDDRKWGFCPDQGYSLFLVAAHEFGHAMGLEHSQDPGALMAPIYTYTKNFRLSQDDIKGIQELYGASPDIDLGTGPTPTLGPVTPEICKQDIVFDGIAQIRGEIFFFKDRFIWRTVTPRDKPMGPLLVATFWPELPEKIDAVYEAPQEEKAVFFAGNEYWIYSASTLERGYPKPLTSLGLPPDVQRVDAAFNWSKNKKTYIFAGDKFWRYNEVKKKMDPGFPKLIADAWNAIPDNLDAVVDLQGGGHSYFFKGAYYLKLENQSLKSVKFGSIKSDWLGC

Matrix metalloproteinase-9, sequence (P14780 whole entry): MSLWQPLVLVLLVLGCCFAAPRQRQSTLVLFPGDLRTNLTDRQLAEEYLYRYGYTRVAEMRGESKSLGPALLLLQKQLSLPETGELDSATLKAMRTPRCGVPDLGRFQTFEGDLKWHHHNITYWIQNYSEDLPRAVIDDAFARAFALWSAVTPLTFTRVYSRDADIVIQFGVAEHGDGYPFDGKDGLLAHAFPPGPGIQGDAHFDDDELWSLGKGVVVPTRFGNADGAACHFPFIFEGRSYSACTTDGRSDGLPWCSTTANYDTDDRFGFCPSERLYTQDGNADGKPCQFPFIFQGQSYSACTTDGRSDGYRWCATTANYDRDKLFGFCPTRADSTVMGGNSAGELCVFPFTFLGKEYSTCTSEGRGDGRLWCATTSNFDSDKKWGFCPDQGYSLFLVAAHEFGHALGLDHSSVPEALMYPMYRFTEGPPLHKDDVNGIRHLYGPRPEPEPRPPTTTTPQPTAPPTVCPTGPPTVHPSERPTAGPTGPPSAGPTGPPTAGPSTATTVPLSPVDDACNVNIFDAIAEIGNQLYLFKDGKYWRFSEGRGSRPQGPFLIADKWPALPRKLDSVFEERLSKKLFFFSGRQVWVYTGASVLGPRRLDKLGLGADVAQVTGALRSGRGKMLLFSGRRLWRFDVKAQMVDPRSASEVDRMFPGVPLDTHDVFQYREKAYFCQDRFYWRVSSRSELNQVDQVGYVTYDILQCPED

Row | SMILES | IC50 [1] [µM] | IC50 [2] [µM]
1 | COc1ccc(S(=O)(=O)N2C[C@H](NC(=O)CCCNC(=O)OC(C)(C)C)C[C@@H]2C(=O)NO)cc1 | 0.049 | 0.091
2 | COc1ccc(S(=O)(=O)N2CCC[C@@H]2C(=O)NO)cc1 | 0.022 | –
3 | COc1ccc(S(=O)(=O)N2C[C@H](NC(=O)[C@@H](N)CCCCN)C[C@@H]2C(=O)NO)cc1 | 0.0057 | 1.26
4 | COc1ccc(S(=O)(=O)N2C[C@H](NC(=O)[C@H](CCCCN)NC(=O)OC(C)(C)C)C[C@@H]2C(=O)NO)cc1 | 0.027 | 0.432
5 | COc1ccc(S(=O)(=O)N2C[C@H](NC(=O)CCCN)C[C@@H]2C(=O)NO)cc1 | 0.053 | 0.302
6 | COc1ccc(S(=O)(=O)N2C[C@H](NC(=O)[C@@H](N)CCCN)C[C@@H]2C(=O)NO)cc1 | 0.154 | 0.015
7 | COc1ccc(S(=O)(=O)N2C[C@H](NC(=O)[C@H](CCCN)NC(=O)OC(C)(C)C)C[C@@H]2C(=O)NO)cc1 | 3.42 | 1.32
8 | COc1ccc(S(=O)(=O)N2C[C@H](NC(=O)C(C)(C)C)C[C@@H]2C(=O)NO)cc1 | 0.013 | 0.026
9 | CCCC[C@H](N)C(=O)N[C@@H]1C[C@H](C(=O)NO)N(S(=O)(=O)c2ccc(OC)cc2)C1 | 0.098 | 0.062
10 | CCCC[C@H](NC(=O)OC(C)(C)C)C(=O)N[C@@H]1C[C@H](C(=O)NO)N(S(=O)(=O)c2ccc(OC)cc2)C1 | 0.131 | 0.087
